Assay results reported in EP4772520A1, “NOVEL PRODRUG-TYPE ANTICANCER AGENT TARGETING CANCER-SPECIFIC ENZYME ACTIVITY” (priority 2023, dated 2025).
Several values for one entry are separate records, joined by “and”; a condition that tells them apart may be missing. Equal entries are not always repeated.

Tests used:
[1] = system: lung adenocarcinoma cell A549; experiment: Cytotoxicity test by MTT assay method (A549); assay type: cell-based; conditions: for IC50: Homo sapiens, A549, 72 h, read-out: IC50 value
human AChE = target: T1, human AChE (Homo sapiens, UniProt P22303); experiment: Evaluation of inhibitory activity on acetylcholinesterase (AChE); assay type: biochemical; conditions: for AChE inhibitory activity: in the presence of 10 µM of each drug; for IC50: read-out: IC50 value for AChE inhibition, 60 min value
T1 construct: purchased AnaSpec, Inc
T1 sequence (P22303 32-614): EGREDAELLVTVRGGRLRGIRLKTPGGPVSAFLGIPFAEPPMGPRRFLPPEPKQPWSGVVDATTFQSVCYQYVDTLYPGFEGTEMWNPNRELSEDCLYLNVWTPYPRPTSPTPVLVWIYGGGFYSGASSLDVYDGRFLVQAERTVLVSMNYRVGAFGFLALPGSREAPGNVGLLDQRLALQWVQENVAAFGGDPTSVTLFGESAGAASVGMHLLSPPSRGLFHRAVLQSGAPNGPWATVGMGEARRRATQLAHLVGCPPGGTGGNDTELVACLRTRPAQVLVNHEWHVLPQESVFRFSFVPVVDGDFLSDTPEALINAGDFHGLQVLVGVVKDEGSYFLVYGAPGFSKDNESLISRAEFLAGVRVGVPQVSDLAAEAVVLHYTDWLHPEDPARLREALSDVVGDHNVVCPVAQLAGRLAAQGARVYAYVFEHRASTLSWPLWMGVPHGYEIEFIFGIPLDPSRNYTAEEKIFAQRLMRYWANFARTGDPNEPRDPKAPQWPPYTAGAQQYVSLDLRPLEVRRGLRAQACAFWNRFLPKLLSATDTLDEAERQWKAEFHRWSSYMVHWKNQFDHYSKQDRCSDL
Protocol: The procedure of the specific inhibition test is shown below. • (1) A test drug at each concentration was added to a 96 well plate, and acetylcholine, an AChE substrate, and an AChE purified enzyme were added according to a protocol, using SensoLyte (registered trademark) 520 Acetylcholine esterase Activity Assay Kit Fluorometric (AnaSpec, Inc.). Neostigmine bromide known as an AChE inhibitor was used as […]. • (2) The fluorescence value at 520 nm was measured, and the IC50 value was calculated.

[2] = Evaluation of locomotion after administration of drug; assay type: in vivo; conditions: intravenous administration of 40 mg/kg, n = 4, 15 minutes from 1 minute after administration
Protocol: The momentum after drug administration was compared (n = 4).
Fig. 22 illustrates results of locomotion evaluation after drug administration. a of Fig. 22 illustrates the head movement distance for 15 minutes from 1 minute after administration in each group. The drug is administered intravenously at 40 mg/kg (n = 4). b of Fig. 22 illustrates an example of a movement trajectory for 15 minutes from 1 minute after administration in each group. c of Fig. 22 illustrates an example of a movement distance for each time from 1 minute after administration in each group.

[3] = system: luciferase-expressing A549 cells; experiment: Therapeutic experiment 1 in A549 lung cancer orthotopic transplantation model; assay type: in vivo, mice; conditions: 40 mg/kg i.v., 3 times a week; for tumor suppression effect (luciferin/luciferase chemiluminescence): vs Vehicle
Protocol: The administration form was intravenous administration (i.v.). The dose was 40 mg/kg, and administration was performed 3 times a week for 4 times. The tumor burden was determined by evaluating the luciferin/luciferase chemiluminescence value. The endpoint was the time point of significant body weight loss (20% loss).
A specific procedure of the therapeutic experiment is shown below. • (1) Model mice were created by the following operation using BALB/cAJcl-nu/nu (7 weeks old). The skin of the chest was incised, and the skin was subcutaneously detached, then luciferase-expressing A549 cells 2 × 10^7 cells/mL (50 µL, 5% Matrigel) was injected from the intercostal pleura to the left lung. After injection, the skin was sutured. • (2) After 17 days, the formation of cancer was confirmed by luciferin/luciferase chemiluminescence, and the intravenous administration of the drug was started. The drug was prepared by dissolving a 200 mM of DMSO stock in PBS, and administered in a total amount of 100 µL. 3 mg (200 µL) of luciferin was administered by intraperitoneal administration, and anesthetized with isoflurane. Thereafter, the chemiluminescent value at 20 minutes after administration was measured by an in vivo imaging device. • (3) On the day of evaluation, the tumor burden was evaluated by the body weight and the luciferin/luciferase chemiluminescence.

in vivo = conditions: for AUC(0-t) at 6 h: AUC0-6h (μg・h/mL); for clearance: CLtot (mL/min/kg); for AUC0-6h (μg・h/mL): 360 min
Excerpt: A specific test procedure is shown below. • (1) Three marmosets (6 males in total) in each of the SN38-βGal and SN38-βGlcNAc administration groups were sequentially retained using a retention device, and a tail of the administration site was shaved. • (2) The base of the tail from the injection site was avascularized to cause blood vessels to become engorged. Veins running on both left and right sides of the tail were checked, the puncture site was disinfected with alcohol cotton, and then administration was performed with a 27 G injection needle using one of the left and right blood vessels. For administration, 1.0 mg/mL of prepared administration solution of SN38-βGal or SN38-βGlcNAc was intravenously administered at an injection rate of 350 µL/min (about 11 minutes: due to different body weight, the time τ actually required for the injection was accurately recorded for each individual) by an infusion pump at a dose of 10 mg/10 mL/kg. • (3) Immediately after the start of infusion administration, about 220 µL of blood was collected with a heparinized syringe at 5, 15, 30, 45 minutes, 1, 2, 3, and 6 hours, and centrifuged at 1200 G and 4°C for 15 minutes to collect plasma. • (4) After the plasma was dispensed into the microtube, 100 µL of the plasma was accurately taken, and a 200 µM of inhibitor N-(n-nonyl) deoxygalactonoijirimycin solution in the SN38-βGal administration group, a 200 µM of inhibitor PUGNAc solution in the SN38-βGlcNAc administration group, and 100 µL of each were added to the microtube dispensed in advance and mixed quickly.

[4] = marmoset, in vivo, iv, 10 mg/kg, prodrug, 11 min infusion, N=3, average
[5] = marmoset, in vivo, iv, 10 mg/kg, Vd (L/kg), prodrug, 11 min infusion, N=3, average
[6] = marmoset, in vivo, iv, 10 mg/kg, Vd (L/kg), prodrug, 10 mg/kg i.v., individual marmosets
[7] = marmoset, in vivo, iv, 10 mg/kg, blood half-life, prodrug, 10 mg/kg i.v., 11 minutes infusion
[8] = marmoset, in vivo, iv, 10 mg/kg, t1/2 (h), prodrug, 11 min infusion, N=3, average
[9] = marmoset, in vivo, iv, 10 mg/kg, t1/2 (h), prodrug, 10 mg/kg i.v., individual marmosets
[10] = prodrug, 10 mg/kg i.v., individual marmosets, 10 mg/kg
[11] = marmoset, in vivo, iv, 10 mg/kg, prodrug, 10 mg/kg i.v., individual marmosets

Compound | IC50 [1] | AChE inhibitory activity (human AChE) | IC50 (human AChE) | locomotion after drug administration [2] | body weight [3] | tumor suppression effect (luciferin/luciferase chemiluminescence) [3] | abnormalities after drug administration (in vivo; 10 mg/kg i.v.) | AUC(0-t) at 6 h (in vivo; [4]) | clearance (in vivo; [4]) | Vd (in vivo; [5]) | Vd (in vivo; [6]) | half-life (in vivo; [7]) | half-life (in vivo; [8]) | half-life (in vivo; [9]) | CLtot (in vivo; [10]) | Vd (in vivo; [10]) | t1/2 (in vivo; [10]) | AUC0-6h (μg・h/mL) (in vivo; [10]) | also measured
CCc1c2c(nc3ccc(O[C@@H]4O[C@H](CO)[C@H](O)[C@H](O)[C@H]4O)cc13)-c1cc3c(c(=O)n1C2)COC(=O)[C@]3(O)CC [SN38-βGal] | 3.38 µM | did not inhibit AChE activity in this concentration range | 1560 µM | these decreases in the locomotion were hardly observed | the slight body weight loss was found, but it was not remarkable as in CPT-11 | tended to suppress tumor growth as in the CPT-11 administration group | remarkable abnormalities, vomiting, and the like were not found in any individual | 52700 ng·h/mL | 3.5 mL/min/kg | 0.215 L/kg | 0.205 L/kg | 58.3 min | 58.3 min | 49.9 min | 3.4 mL/min/kg and 2.2 mL/min/kg and 4.8 mL/min/kg | 0.169 L/kg and 0.271 L/kg | 58.7 min and 66.3 min | 48.57 μg・h/mL and 75.13 μg・h/mL and 34.47 μg・h/mL | –
CCc1c2c(nc3ccc(O[C@@H]4O[C@H](CO)[C@@H](O)[C@H](O)[C@H]4NC(C)=O)cc13)-c1cc3c(c(=O)n1C2)COC(=O)[C@]3(O)CC [SN38-βGlcNAc] | 1.35 µM | did not inhibit AChE activity in this concentration range | 1440 µM | these decreases in the locomotion were hardly observed | the slight body weight loss was found, but it was not remarkable as in CPT-11 | tended to suppress tumor growth as in the CPT-11 administration group | remarkable abnormalities, vomiting, and the like were not found in any individual | 78300 ng·h/mL | 2.2 mL/min/kg | 0.142 L/kg | 0.149 L/kg | 47.6 min | 47.6 min | 43.9 min | 2.0 mL/min/kg | 0.134 L/kg and 0.143 L/kg | 49.7 min and 49.3 min | 84.34 μg・h/mL and 76.92 μg・h/mL | cytotoxicity in the presence of inhibitor ([1]; A549, inhibitor PUGNAc of β-hexosaminidase): cytotoxicity was significantly reduced; AUC(0-t) at 6 h (in vivo; [11]): 73500 ng·h/mL; AUC (in vivo; marmoset, in vivo, iv, 10 mg/kg, AUC0- (μg・h/mL), prodrug, 10 mg/kg i.v., individual marmosets): 73800 ng·h/mL; clearance (in vivo; [11]): 2.3 mL/min/kg
